Laboratory results as given in patent publication US20110124572A1, “SYNDECAN-4 IS A REGULATOR OF RAC1-GTP” (priority 2008, published 2011).
Values joined by “and” are separate entries in the source; they are usually repeats but may differ in a detail not shown here. Identical values can stand only once.

Columns and labels:
Type in all cases: cell-based, human
[1] = tested on: Rac1; test: Rac1 GTPase pulldown assay (Rac1-GTP level); details: wt-, Ser179Ala and Ser179Glu syndecan-4 cell lines, Gö6976
Protocol: Rac1 activity was characterised by applying RAC-activation kit purchased from Millipore (Upstate) and it was used according to the manufacturer's prescription. Briefly, p21-binding domain of PAK-1 was fused to agarose beads, which specifically binds to and precipitates Rac-GTP and Cdc42-GTP from cell lysates. Cells were harvested at 70% confluency of 25 ml flasks. The wild type Syndecan-4, Ser179Ala and Ser179Glu cells were treated for 60 minutes with 1 μM PMA (Sigma-Aldrich), or 500 nM rottlerin (Sigma-Aldrich), or 10 nM Gö6976 (Biosource, Camarillo, Calif., USA). The active Rac1 was detected by Western blotting using mouse anti-Rac1 antibody (Upstate). To test whether GST-Pak1-Rac/Cdc42-binding domain could pull syndecan-4 down, the blot was probed with rabbit polyclonal anti-syndecan-4 or mouse monoclonal anti-GFP antibody.

[2] = tested on: MCF-7 cells; test: Cell migration assay (time-lapse) on fibronectin; details: nt-MCF-7 (non-transfected) cells, PMA stimulation, solitary cell migration
Protocol: The MCF-7 breast adenocarcinoma cells were obtained from ATCC, cultured in DMEM:F12 (Cambrex, Walkersville, Md., USA) supplemented with 10% fetal bovine serum (FBS) (Gibco, Bethesda, Md., USA), otherwise stated. The stably transfected cell lines were propagated in DMEM:F12 medium supplemented with 10% FBS and 200 μg/ml G418 (Cambrex, Walkersville, Md., USA). The cell lines were seeded onto glass coverslips or plastic dishes coated for 2 h with 10 μg/ml fibronectin (Sigma-Aldrich, St. Louis, Mo., USA). Scratch-wound assays were performed on stable transfected Syndecan-4 wild, Ser179Ala and Ser179Glu cells at 80% confluency. The cultures were scratched with a sterile P10 pipette tip 3-4 times in parallel lines. Images were taken 12, 24, 36 and 48 h following wounding.
In the cell migration assay 60% confluent MCF7 cells or the stably transfected lines were stimulated by 1 μM phorbol-12-myristate-13-acetate (PMA; from Sigma-Aldrich St. Louis, Mo., USA), otherwise stated. The images were taken using 10×, 20×0.3 objective at 3-min intervals for 2 h using inverted microscope (Leica) and organized into time-lapse movies in Adobe ImageReady® v. 8.
Results of the previous scratch-wound assay gave a hint that the Ser179Glu cells gained a migratory phenotype. […]

[3] = tested on: MCF7 cells; test: Neuronal differentiation under serum starvation; details: 4-5 weeks, bIII-tubulin marker
Protocol: FIG. 8. Neuronal differentiation induced by short Syndecan-4 peptides. MCF7 cells were transfected with wild type syndecan-4 (A) and DEGEpC3 (B), respectively. […] Red: b3-tubulin staining. Blue: Hoechst nuclear staining (A). DEGEpC3: […] was joined to GFP.
Short peptides with the sequence […] (SEQ.ID.NO.: 3) and […] (SEQ.ID.NO.: 4) were tested under serum starvation.

For `Cn1c2ccccc2c2c3c(c4c5ccccc5n(CCC#N)c4c21)C(=O)NC3` [Gö6976, reference compound], the “activated Rac1 level” value [1] was “reduced”.

For `CCCCCCCCCCCCCC(=O)O[C@@H]1[C@@H](C)[C@@]2(O)[C@@H](C=C(CO)C[C@]3(O)C(=O)C(C)=C[C@@H]23)[C@@H]2C(C)(C)[C@]12OC(C)=O` [PMA, phorbol-12-myristate-13-acetate, reference compound], the migration velocity [2] was 0.3±0.1 μm/min and 0.3 μm/min.

With MYRMKKKDEGEYDL [DEGEpC3] the neuronal differentiation phenotype [3] was “neuron-like phenotype”.

For “RMKKKDEGDYDLG (Syndecan-4 sequence) [SEQ.ID.NO.: 4]”, the neuronal differentiation phenotype [3] was “neuron-like phenotypes”.

“RMKKKDEGEYDLG (Syndecan-4 sequence) [SEQ.ID.NO.: 3]” was tested, and the neuronal differentiation phenotype [3] was “neuron-like phenotypes”.
